pIC50: −log10 of the molar value. Structures can show the parent of a compound that is named as a salt. Starred links: 1 amine or outer side, 2 acyl side, 3 side chain; linkers in the order of their positions; H or OH if unused. Non-standard residues stand in square brackets, D forms with d. Residues, ends and D or L forms follow the SMILES beside them. ξ: configuration not given here. X1 = COC(=O)/C=C/CC[C@H](N[*:1])C(=O)[*:2]; Pro(4-oxo) = O=C1CN[C@H](C(=O)O)C1; Ile(3ξ) = CCC(C)[C@H](N)C(=O)O; Nle = CCCC[C@H](N)C(=O)O
Target: T1, Factor XIIIa (Homo sapiens, UniProt P00488)
T1 construct: purchased Zedira T027 or T007
T1 sequence (P00488 39-732 limits assumed): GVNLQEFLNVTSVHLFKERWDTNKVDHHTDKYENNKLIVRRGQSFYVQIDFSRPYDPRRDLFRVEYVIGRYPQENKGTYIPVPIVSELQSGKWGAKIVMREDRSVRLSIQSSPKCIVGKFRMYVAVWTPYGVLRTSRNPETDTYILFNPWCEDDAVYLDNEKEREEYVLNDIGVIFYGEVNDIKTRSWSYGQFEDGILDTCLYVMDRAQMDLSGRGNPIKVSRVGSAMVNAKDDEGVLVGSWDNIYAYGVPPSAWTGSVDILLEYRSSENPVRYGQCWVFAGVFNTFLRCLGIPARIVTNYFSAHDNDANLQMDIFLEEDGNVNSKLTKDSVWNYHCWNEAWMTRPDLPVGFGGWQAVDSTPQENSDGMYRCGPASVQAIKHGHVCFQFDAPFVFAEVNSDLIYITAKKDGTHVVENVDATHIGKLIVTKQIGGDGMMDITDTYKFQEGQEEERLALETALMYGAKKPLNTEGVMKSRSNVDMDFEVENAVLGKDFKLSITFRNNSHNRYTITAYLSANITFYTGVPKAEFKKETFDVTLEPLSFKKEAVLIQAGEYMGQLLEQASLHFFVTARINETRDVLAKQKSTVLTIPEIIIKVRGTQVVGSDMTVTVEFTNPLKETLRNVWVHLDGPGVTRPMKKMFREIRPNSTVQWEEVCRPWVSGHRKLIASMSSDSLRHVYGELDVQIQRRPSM
Assay: Fluorogenic assay kit F001 (Zedira), isopeptidase activity of FXIIIa
Assay type: biochemical
Conditions: FXIIIa after activation by thrombin; fluorescence ex 313 nm / em 418 nm
Description: Kinetic data of the inhibitor 1 (compound 4) and inhibitor 2 (compound 7) using the commercial fluorogenic assay kit F001 (Zedira) show an IC50 of about 0.11 and 0.08 μM respectively. The fluorogenic assay kit F001 (Zedira) is ready to use. Briefly, recombinant factor XIII (Zedira, product number T027) or human blood derived factor XIII (T007) is reconstituted in water. The enzymatic activity is measured in a suitable buffer (e.g. TRIS buffer pH 7.5 containing calcium chloride, sodium chloride, poly ethylene glycol (PEG), glycine methyl ester, clot inhibitor peptide GPRP-amide) after activation by thrombin. Factor XIIIa cleaves a dark quenching molecule from the side chain of the modified peptide incorporating glycine methyl ester (so called iso-peptidase activity). Subsequently, the fluorescence of an N-terminal coupled dye increases and can be monitored on-line (excitation wavelength 313 nm; emission wavelength 418 nm). The inhibitor of interest can be added after the activation of Factor XIII by thrombin is completed. The IC50 value represents the inhibitor concentration leading to a 50% inhibition of FXIIIa activity.

| pIC50 | Structure (SMILES) |
| --- | --- |
| ~6.96 | CCCC[C@H](NC(=O)[C@H](CC/C=C/C(=O)OC)NC(=O)[C@@H](CC(=O)O)NC(C)=O)C(=O)N[C@@H](CCCC)C(=O)N[C@@H](CC(C)C)C(=O)N1CCC[C@H]1C(=O)N[C@@H](Cc1c[nH]c2ccccc12)C(=O)N1CCC[C@H]1C(=O)O [compound 4, (S)-1-((S)-2-((S)-1-((4R,7S,10S,13S,16S)-10,13-dibutyl-4-(carboxymethyl)-7-((E)-5-methoxy-5-oxopent-3-enyl)-18-methyl-2,5,8,11,14-pentaoxo-3,6,9,12,15-pentaazanonadecanecarbonyl)pyrrolidine-2-carboxamido)-3-(1H-indol-3-yl)propanoyl)pyrrolidine-2-carboxylic acid] (Ac-[dD][X1][Nle][Nle]LPWP-OH) |
| ~7.10 | CCCC[C@H](NC(=O)[C@H](CC/C=C/C(=O)OC)NC(=O)[C@@H]1CC(=O)CN1)C(=O)N[C@H](C(=O)N[C@@H](CC(C)C)C(=O)N1CCC[C@H]1C(=O)N[C@@H](Cc1c[nH]c2ccccc12)C(=O)N1CCC[C@H]1C(=O)O)C(C)CC (stereo partly drawn) [compound 7, (S)-1-((S)-2-((S)-1-((8S,11S,14S,17S,E)-14-sec-butyl-11-butyl-17-isobutyl-3,9,12,15-tetraoxo-8-((S)-4-oxopyrrolidine-2-carboxamido)-2-oxa-10,13,16-triazaoctadec-4-ene)pyrrolidine-2-carboxamido)-3-(1H-indol-3-yl)propanoyl)pyrrolidine-2-carboxylic acid trifluoroacetate] (H-[Pro(4-oxo)][X1][Nle][Ile(3ξ)]LPWP-OH) |

From patent publication US20160137990A1, “CRYSTAL STRUCTURE OF BLOOD COAGULATION FACTOR XIIIA” (ZEDIRA GMBH, priority 2012, published 2016)
